Test results taken from patent US11555042B2, “Macrocyclic compounds as TRK kinases inhibitors” (FOCHON BIOSCIENCES, LTD., priority 2018, dated 2023).

Columns and labels:
Type in all cases: cell-based
[1] = system: KM12 cells; assay: KM12 cells proliferation inhibition (MTS), mechanism-based assay for TRK; conditions: Homo sapiens, KM12, 72 h
Outline: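 KM12 cells (1000 cells/well, RPMI-1640 plus 10% FBS) were treated with compounds at 1.5–10000 nM final for 72 h at 37 °C. Viability was measured by MTS for 2 h, stopped with SDS, with absorbance read at 490 nm (650 nm reference). IC50 was calculated from the readings.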

[2] = target: T1, ETV6-TRKC (Homo sapiens, UniProt Q16288); assay: Engineered Ba/F3 cell proliferation inhibition (MTS), ETV6-TRKC; conditions: 72 h
T1 construct: fused on or other part: P41212 (Transcription factor ETV6)
T1 sequence (Q16288 whole entry, the tested form may be a part): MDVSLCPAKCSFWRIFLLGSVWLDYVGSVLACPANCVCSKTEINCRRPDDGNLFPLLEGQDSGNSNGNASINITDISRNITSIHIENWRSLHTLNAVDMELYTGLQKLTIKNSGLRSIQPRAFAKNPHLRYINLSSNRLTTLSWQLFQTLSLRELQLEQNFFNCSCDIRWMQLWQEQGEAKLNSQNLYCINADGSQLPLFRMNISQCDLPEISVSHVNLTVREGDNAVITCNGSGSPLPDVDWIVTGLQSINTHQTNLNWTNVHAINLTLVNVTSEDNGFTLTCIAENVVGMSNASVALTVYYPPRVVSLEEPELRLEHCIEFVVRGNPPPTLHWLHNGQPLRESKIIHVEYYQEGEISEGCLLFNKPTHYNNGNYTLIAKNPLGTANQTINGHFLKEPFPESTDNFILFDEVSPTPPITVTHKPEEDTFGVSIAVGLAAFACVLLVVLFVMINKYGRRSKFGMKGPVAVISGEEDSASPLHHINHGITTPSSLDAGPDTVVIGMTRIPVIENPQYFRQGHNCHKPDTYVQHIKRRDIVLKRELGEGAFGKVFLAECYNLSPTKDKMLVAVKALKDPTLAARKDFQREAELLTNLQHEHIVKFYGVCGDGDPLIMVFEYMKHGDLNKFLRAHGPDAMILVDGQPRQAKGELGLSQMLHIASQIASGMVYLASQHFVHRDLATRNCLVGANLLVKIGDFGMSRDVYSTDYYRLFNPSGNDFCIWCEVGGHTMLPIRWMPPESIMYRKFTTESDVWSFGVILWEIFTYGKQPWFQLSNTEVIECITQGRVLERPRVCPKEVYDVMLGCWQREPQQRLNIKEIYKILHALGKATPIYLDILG
From the text: (§1) MTS testing kit was purchased from Promega (Madison, Wis., USA). The RPMI-1640, Fetal bovine serum and Penicillin-Streptomycin were purchased from Gibco (San Francisco, Calif., USA). Dimethyl sulfoxide (DMSO) and Puromycin were purchased from Sigma (St. Louis., Mo., USA). Mouse interleukin-3 (IL-3) was purchased from Cell signaling Technology (Boston, Mass., USA).
(§2) To investigate whether a compound is able to inhibit the activity of TRK fusion mutation in cells, a mechanism-based assay using engineered Ba/F3 cell lines stably overexpressing oncogenic rearrangement or gene mutation of TRK (TPM3-TRKA, TPM3-TRKA-G595R, AFAP1-TRKB, ETV6-TRKC and ETV6-TRKC-G623R) were developed. In this assay, inhibition of TRK fusion mutation was detected by the cell proliferation inhibition of engineered Ba/F3 cells. Engineered Ba/F3 cells were cultured in culture flasks to 40-80% confluence in RPMI-1640 supplemented with 10% fetal bovine serum, 2 ug/mL puromycin. Cells were collected and plated onto 96-well plates at desired cell density (Ba/F3-TPM3-TRKA: 3×10^4/mL, Ba/F3-TPM3-TRKA-G595R: 1×10^5/mL, Ba/F3-AFAP1-TRKB: 1×10^5/mL, Ba/F3-ETV6-TRKC: 3×10^4/mL, Ba/F3-ETV6-TRKC-G623R: 3×10^4/mL). Plates were incubated at 37° C., with 5% CO2 for 4 h. Compounds were then added to the plates with the final compound concentrations of 10000, 3333, 1111, […], 123, 41.2, 13.7, 4.6 and 1.5 nM. Plates were incubated at 37° C., with 5% CO2 for 72 h. A mixture of 20 μl MTS/100 μl medium were added to each well and the plates were incubated at 37° C., with 5% CO2 for exactly 2 h. The reaction was stopped by adding 25 μl of 10% SDS per well. The absorbance was measured at 490 nm and 650 nm (reference wavelength). IC50 was calculated using GraphPad Prism 5.0 software.

[3] = target: T2, TPM3-TRKA (Homo sapiens, UniProt P04629); assay: Engineered Ba/F3 cell proliferation inhibition (MTS), TPM3-TRKA; conditions: 72 h
T2 construct: TPM3 (tropomyosin alpha-3, P06753) fusion partner; expressed in transfected cells; host or cells: Ba/F3; the other entry of the earlier key: TPM3 (P06753, Tropomyosin alpha-3 chain)
T2 sequence (P04629 510-796 limits assumed): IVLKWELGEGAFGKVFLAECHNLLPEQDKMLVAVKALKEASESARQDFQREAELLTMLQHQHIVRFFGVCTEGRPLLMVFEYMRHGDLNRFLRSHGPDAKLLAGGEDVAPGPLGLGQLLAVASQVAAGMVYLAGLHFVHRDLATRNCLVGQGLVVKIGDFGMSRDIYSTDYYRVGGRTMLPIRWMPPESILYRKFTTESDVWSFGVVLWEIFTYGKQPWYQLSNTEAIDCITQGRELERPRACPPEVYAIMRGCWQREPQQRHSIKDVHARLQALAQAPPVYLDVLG
From the text: as §1, §2

[4] = target: T3, TPM3-TRKA-G595R (Homo sapiens, UniProt P04629, G595R); assay: Engineered Ba/F3 cell proliferation inhibition (MTS), TPM3-TRKA-G595R; conditions: 72 h
T3 construct: TPM3 (tropomyosin alpha-3, P06753) fusion partner; expressed in transfected cells; host or cells: Ba/F3; the other entry of the earlier key: TPM3 (P06753, Tropomyosin alpha-3 chain)
T3 sequence (P04629 510-796 G595R limits assumed): as the sequence (P04629 510-796 limits assumed) above, with G86R counted along it
From the text: as §1, §2

[5] = target: T4, ETV6-TRKC-G623R (Homo sapiens, UniProt Q16288, G623R); assay: Engineered Ba/F3 cell proliferation inhibition (MTS), ETV6-TRKC-G623R; conditions: 72 h
T4 construct: fused on or other part: P41212 (Transcription factor ETV6)
T4 sequence (Q16288 whole entry G623R, the tested form may be a part): as the sequence (Q16288 whole entry, the tested form may be a part) above, with G623R counted along it
From the text: as §1, §2

Row | SMILES | IC50 [1] [nM] | IC50 [2] [nM] | IC50 [3] [nM] | IC50 [4] [nM] | IC50 [5] [nM]
1 | C[C@H]1CNC(=O)c2cnn3ccc(nc23)N2CCC3CC32c2cc(F)ccc2O1 (stereo partly drawn) [Example 3, (1^3E,1^4E,5S)-3^5-fluoro-5-methyl-4-oxa-2^2,7-diaza-1(5,3)-pyrazolo[1,5-a]pyrimidina-2(2,1)-bicyclo[3.1.0]hexana-3(1,2)-benzenacyclooctaphan-8-one] | 1 | 1 |  |  | 
2 | C[C@@H]1COc2ncc(F)cc2C2(CC2)Nc2ccn3ncc(c3n2)C(=O)N1 [Example 8, (R,3′E,4′E)-5′-fluoro-7′-methylspiro[cyclopropane-1,3′-5-oxa-2,8-diaza-1(5,3)-pyrazolo[1,5-a]pyrimidina-4(3,2)-pyridinacyclononaphan]-9′-one] | 4 | 1 | 3 | 67 | 39
3 | C[C@@H]1COc2ccc(F)cc2[C@@]23C[C@@H]2CCN3c2ccn3ncc(c3n2)C(=O)N1 [Example 15, (1^3E,1^4E,2^1R,2^5S,6R)-3^5-fluoro-6-methyl-4-oxa-2^2,7-diaza-1(5,3)-pyrazolo[1,5-a]pyrimidina-2(2,1)-bicyclo[3.1.0]hexana-3(1,2)-benzenacyclooctaphan-8-one] | 1 | 1 | 1 | 1 | 1
4 | O=C1NCCOc2ccc(F)cc2[C@@]23C[C@@H]2CCN3c2ccn3ncc1c3n2 [Example 16, (1^3E,1^4E,2^1R,2^5S)-3^5-fluoro-4-oxa-2^2,7-diaza-1(5,3)-pyrazolo[1,5-a]pyrimidina-2(2,1)-bicyclo[3.1.0]Hexana-3(1,2)-benzeneacyclooctaphan-8-one] | 1 | 1 | 1 | 1 | 2
5 | CN1c2ccn3ncc(c3n2)C(=O)NC2(CC2)COc2ncc(F)cc2C12CC2 [Example 17, (3′E,4′E)-5′-fluoro-2′-methyldispiro[cyclopropane-1,3′-5-oxa-2,8-diaza-1(5,3)-pyrazolo[1,5-a]pyrimidina-4(3,2)-pyridinacyclononaphane-7′,1″-cyclopropan]-9′-one] | 1 |  | 1 | 5 | 1
6 | C[C@@H]1COc2ncc(F)cc2[C@@]23C[C@@H]2CCN3c2ccc3ncc(n3n2)C(=O)N1 [Example 18] | 1 | 1 | 1 | 1 | 2
7 | C[C@@H]1COc2ncc(F)cc2[C@@]23C[C@@H]2CCN3c2ccn3ncc(c3n2)C(=O)N1 [Example 19, (1^3E,1^4E,2^1R,2^5S,6R)-3^5-fluoro-6-methyl-4-oxa-2^2,7-diaza-1(5,3)pyrazolo[1,5-a]pyrimidina-3(3,2)-pyridina-2(2,1)-bicyclo[3.1.0]hexanacyclooctaphan-8-one] | 1 | 1 | 1 | 1 | 1
8 | C[C@@H]1CCc2ncc(F)cc2[C@@]23C[C@@H]2CCN3c2ccn3ncc(c3n2)C(=O)N1 [Example 20, (1^3E,1^4E,2^1R,2^5S,6R)-3^5-fluoro-6-methyl-2^2,7-diaza-1(5,3)-pyrazolo[1,5-a]pyrimidina-3(3,2)-pyridina-2(2,1)-bicyclo[3.1.0]hexanacyclooctaphan-8-one] | 1 | 1 | 1 | 1 | 1
9 | C[C@H]1CNC(=O)c2cnn3ccc(nc23)N2CC[C@H]3C[C@]32c2cc(F)ccc2O1 [Example 22, (1^3E,1^4E,2^1R,2^5S,5S)-3^5-fluoro-5-methyl-4-oxa-2^2,7-diaza-1(5,3)-pyrazolo[1,5-a]pyrimidina-2(2,1)-bicyclo[3.1.10]hexana-3(1,2)-benzenacyclooctaphan-8-one] | 1 | 1 | 1 | 1 | 1
10 | O=C1NCCOc2ncc(F)cc2[C@@]23C[C@@H]2CCN3c2ccn3ncc1c3n2 [Example 23, (1^3E,1^4E,2^1R,2^5S)-35-fluoro-4-oxa-2^2,7-diaza-1(5,3)-pyrazolo[1,5-a]pyrimidina-3(3,2)-pyridina-2(2,1)-bicyclo[3.1.0]hexanacyclooctaphan-8-one] | 1 |  | 1 | 4 | 5
11 | C[C@H]1COc2ccc(F)cc2[C@@]23C[C@@H]2CCN3c2ccn3ncc(c3n2)C(=O)N1 [Example 24, (1^3E,1^4E,2^1R,2^5S,6S)-35-fluoro-6-methyl-4-oxa-2^2,7-diaza-1(5,3)-pyrazolo[1,5-a]pyrimidina-2(2,1)-bicyclo[3.1.0]hexana-3(1,2)-benzenacyclooctaphan-8-one] | 1 | 1 | 1 | 1 | 4
12 | C[C@@H]1CCc2ccc(F)cc2[C@@]23C[C@@H]2CCN3c2ccn3ncc(c3n2)C(=O)N1 [Example 27, (1^3E,1^4E,2^1R,2^5S,6R)-3^5-fluoro-6-methyl-2^2,7-diaza-1(5,3)-pyrazolo[1,5-a]pyrimidina-2(2,1)-bicyclo[3.1.0]hexana-3(1,2)-benzeneacyclooctaphan-8-one] | 1 | 1 | 1 | 1 | 1
13 | C[C@@H]1CCc2ncc(F)cc2[C@@]23C[C@@H]2CCN3c2ccc3ncc(n3n2)C(=O)N1 [Example 29, (2^1R,2^5S,6R,E)-3^5-fluoro-6-methyl-2^2,7-diaza-1(6,3)-imidazo[1,2-b]pyridazina-3(3,2)-pyridina-2(2,1)-bicyclo[3.1.0]hexanacyclooctaphan-8-one] | 1 | 1 | 1 | 1 | 1
14 | O=C1NC2(CC2)COc2ncc(F)cc2C2(CC2)Nc2ccn3ncc1c3n2 [Example 41, (3′E,4′E)-5′-fluorodispiro[cyclopropane-1,3′-5-oxa-2,8-diaza-1(5,3)-pyrazolo[1,5-a]pyrimidina-4(3,2)-pyridina-cyclononaphane-7′,1″-cyclopropan]-9′-one] | 1 |  | 1 | 30 | 26
15 | O=C1NCCOc2ncc(F)cc2C2(CC2)Nc2ccn3ncc1c3n2 [Example 44, (3′E,4′E)-5′-fluorospiro[cyclopropane-1,3′-5-oxa-2,8-diaza-1(5,3)-pyrazolo[1,5-a]pyrimidina-4(3,2)-pyridinacyclononaphan]-9′-one] | 35 | 26 | 18 |  | 
16 | CN1c2ccn3ncc(c3n2)C(=O)NCCOc2ncc(F)cc2C12CC2 [Example 50, (3′E,4′E)-5′-fluoro-2′-methylspiro-[cyclopropane-1,3′-5-oxa-2,8-diaza-1(5,3)-pyrazolo[1,5-a]pyrimidina-4(3,2)-pyridina-cyclononaphan]-9′-one] | 10 | 2 | 11 |  | 68
17 | CCN1c2ccn3ncc(c3n2)C(=O)N[C@H](C)COc2ncc(F)cc2C12CC2 [Example 64, (R,3′E,4′E)-2′-ethyl-5′-fluoro-7′-methylspiro [cyclopropane-1,3′-5-oxa-2,8-diaza-1(5,3)-pyrazolo[1,5-a]pyrimidina-4(3,2)-pyridinacyclononaphan]-9′-one] | 2 |  | 6 |  | 68
18 | CCN1c2ccn3ncc(c3n2)C(=O)NCCOc2ncc(F)cc2C12CC2 [Example 66, (3′E,4′E)-2′-ethyl-5′-fluorospiro-[cyclopropane-1,3′-5-oxa-2,8-diaza-1(5,3)-pyrazolo[1,5-a]pyrimidina-4(3,2)-pyridinacyclononaphan]-9′-one] | 34 | 15 | 60 |  | 
19 | CN1c2ccn3ncc(c3n2)C(=O)NCCCOc2ncc(F)cc2C12CC2 [Example 68, (3′E,4′E)-5′-fluoro-2′-methylspiro-[cyclopropane-1,3′-5-oxa-2,9-diaza-1(5,3)-pyrazolo[1,5-a]pyrimidina-4(3,2)-pyridina-cyclodecaphan]-10′-one] | 10 |  | 8 | 53 | 33
